Laboratory results: patent US9333202B2, “Non-retinoid antagonists for treatment of age-related macular degeneration and stargardt disease” (THE TRUSTEES OF COLUMBIA UNIVERSITY IN THE CITY OF NEW YORK, priority 2012, dated 2016)
Entries after “also recorded” stand apart in the source; their conditions may differ.

Columns and labels:
[1] = target: T1, human RBP4 (Homo sapiens, UniProt P02753); assay: Scintillation proximity (SPA) RBP4 binding assay; conditions: for IC50: 10 nM 3H-retinol, 50 nM biotinylated RBP4, each value one experiment, read-out: IC50 in SPA-based RBP4 binding assay
T1 construct: Untagged human RBP4 purified from urine of tubular proteinuria patients; purchased Fitzgerald Industries International; host or cells: human urine (tubular proteinuria patients)
Experimental: Untagged human RBP4 purified from urine of tubular proteinuria patients was purchased from Fitzgerald Industries International. It was biotinylated using the EZ-Link Sulfo-NHS-LC-Biotinylation kit from Pierce following the manufacturer's recommendations. Binding experiments were performed in 96-well plates (OptiPlate, PerkinElmer) in a final assay volume of 100 μl per well in SPA buffer (1×PBS, pH 7.4, 1 mM EDTA, 0.1% BSA, 0.5% CHAPS). The reaction mix contained 10 nM ^3H-Retinol (48.7 Ci/mmol; PerkinElmer), 0.3 mg/well Streptavidin-PVT beads, 50 nM biotinylated RBP4 and a test compound. Nonspecific binding was determined in the presence of 20 μM of unlabeled retinol. The reaction mix was assembled in the dark under dim red light. The plates were sealed with clear tape (TopSeal-A: 96-well microplate, PerkinElmer), wrapped in the aluminum foil, and allowed to equilibrate 6 hours at room temperature followed by overnight incubation at +4° C. Radiocounts were measured using a TopCount NXT counter (Packard Instrument Company).

[2] = target: T2, RBP4-TTR interaction (Homo sapiens, UniProt P02753); assay: HTRF/TR-FRET assay for retinol-dependent RBP4-TTR interaction (1 μM retinol); format: biochemical; set-up: human RBP4 fragment (amino acids 19-201) was expressed in the Gold(DE3)pLysS E. coli strain; made in house; host or cells: E. coli Gold(DE3)pLysS (Stratagene), pMAL-c4x vector; conditions: for IC50: in the presence of 1 μM retinol, each value one experiment, read-out: IC50 in HTRF-based retinol-dependent RBP4-TTR interaction assay
Source text: Bacterially expressed MBP-RBP4 and untagged TTR were used in this assay. For the use in the TR-FRET assay the maltose binding protein (MBP)-tagged human RBP4 fragment (amino acids 19-201) was expressed in the Gold(DE3)pLysS E. coli strain (Stratagene) using the […] vector. Following cell lysis, recombinant RBP4 was purified from the soluble fraction using the ACTA FPLC system (GE Healthcare) equipped with the 5-ml the MBP Trap HP column. Human untagged TTR was purchased from Calbiochem. Untagged TTR was labeled directly with Eu^3+ Cryptate-NHS using the HTRF Cryptate Labeling kit from CisBio following the manufacturer's recommendations. HTRF assay was performed in white low volume 384 well plates (Greiner-Bio) in a final assay volume of 16 μl per well. The reaction buffer contained 10 mM Tris-HCl pH 7.5, 1 mM DTT, 0.05% NP-40, 0.05% Prionex, 6% glycerol, and 400 mM KF. Each reaction contained 60 nM MBP-RBP4 and 2 nM TTR-Eu along with 26.7 nM of anti-MBP antibody conjugated with d2 (Cisbio). Titration of test compounds in this assay was conducted in the presence of 1 μM retinol. All reactions were assembled in the dark under dim red light and incubated overnight at +4° C. wrapped in aluminum foil. TR-FRET signal was measured in the SpectraMax M5e Multimode Plate Reader (Molecular Device). Fluorescence was excited at 337 nm and two readings per well were taken: Reading 1 for time-gated energy transfer from Eu(K) to d2 (337 nm excitation, 668 nm emission, counting delay 75 microseconds, counting window 100 microseconds) and Reading 2 for Eu(K) time-gated fluorescence (337 nm excitation, 620 nm emission, counting delay 400 microseconds, counting window 400 microseconds). The TR-FRET signal was expressed as the ratio of fluorescence intensity: Flu665/Flu620×10,000.

[3] = target: T2, RBP4-TTR interaction; assay: TR-FRET (HTRF) assay for antagonists of retinol-induced RBP4-TTR interaction, agonist and antagonist mode (Example 2); format: biochemical; set-up: made in house; host or cells: E. coli; conditions: agonist mode, dose titration
Source text: TR-FRET (Time-Resolved Fluorescence Resonance Energy Transfer) is an assay format that can be used in characterization of compounds affecting protein-protein interactions (31-33). […] In the presence of retinol, RBP4-TTR interaction induces FRET that can be registered as increased ratio of […] fluorescence signals. Binding of a desired RBP4 antagonist displaces retinol and induces hindrance for RBP4-TTR interaction resulting in the decreased FRET signal (FIG. 7).
The assay was developed using E. coli-expressed MBP-tagged RBP4 and commercially available TTR labeled directly with Eu3+ cryptate. In addition to MBP-RBP4 and Eu3+ (K)-TTR, a detector reagent anti-MBP-d2 was present in the mix. The assay was first optimized in the agonist mode; sensitivity and dynamic range of the assay was […] in respect to RBP4, TTR and detection reagent concentrations.

O=C(c1c[nH]cn1)N1CCC(c2ccccc2C(F)(F)F)CC1 [Compound 48]
Binding to RBP4 in vitro (in words) [1]: bind to RBP4
IC50 [1]: 0.00568 µM
Antagonism of RBP4-TTR interaction in vitro (in words) [2]: antagonize retinol-dependent RBP4-TTR interaction
IC50 [2]: 0.106 µM

CS(=O)(=O)c1ccc(NC(=O)N2CCC(c3ccccc3C(F)(F)F)CC2)c(C(=O)O)c1 [Compound 64]
Binding to RBP4 in vitro (in words) [1]: bind to RBP4
IC50 [1]: 0.0498 µM
Antagonism of RBP4-TTR interaction in vitro (in words) [2]: antagonize retinol-dependent RBP4-TTR interaction; also recorded: antagonize RBP4-TTR interaction in vitro at biologically significant concentrations
IC50 [2]: 1.27 µM

O=C(O)c1cnccc1NC(=O)N1CCC(c2ccccc2C(F)(F)F)CC1 [Compound 65]
Binding to RBP4 in vitro (in words) [1]: bind to RBP4
IC50 [1]: 0.0199 µM
Antagonism of RBP4-TTR interaction in vitro (in words) [2]: antagonize retinol-dependent RBP4-TTR interaction; also recorded: antagonize RBP4-TTR interaction in vitro at biologically significant concentrations
IC50 [2]: 0.199 µM

CC1=C(/C=C/C(C)=C/C=C/C(C)=C/C(=O)Nc2ccc(O)cc2)C(C)(C)CCC1 [fenretinide, N-(4-hydroxy-phenyl)retinamide]
Induction of RBP4-TTR interaction [3]: did not induce RBP4-TTR interaction
